Several values for one entry are separate records, joined by “and”; a condition that tells them apart may be missing. Identical values can stand only once. Inconclusive results and toxic doses are left out.
Test system: BDF1 mice, P388 leukemia ip, median survival T/C
Assay: NCI In Vivo Anticancer Drug Screen. Data for tumor model P388 Leukemia (intraperitoneal) in B6D2F1 (BDF1) mice
Details: endpoint: median survival time, higher = longer survival
Procedure, shortened: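 In tumour-bearing mice, survival after compound treatment is set against the vehicle group and given as a quotient.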

[1] = dose: 50.0 mg/kg/injection, schedule: Q01DX009 (ip), vehicle: saline with Tween-80
[2] = dose: 100.0 mg/kg/injection, schedule: Q01DX009 (ip), vehicle: saline with Tween-80
[3] = dose: 200.0 mg/kg/injection, schedule: Q01DX009 (ip), vehicle: saline with Tween-80

In the case of `CCCCCCCNC(C)(C)C(SS)c1ccc(Cl)cc1` (stereo not drawn), the T/C (dose: 100.0 mg/kg/injection, schedule: Q04DX003 (sc), vehicle: olive oil, sesame oil, peanut oil) was 100 % of control, the T/C (dose: 200.0 mg/kg/injection, schedule: Q04DX003 (sc), vehicle: olive oil, sesame oil, peanut oil) was 109 % of control and the T/C (dose: 400.0 mg/kg/injection, schedule: Q04DX003 (sc), vehicle: olive oil, sesame oil, peanut oil) was 100 % of control.

`CCCCC(=O)c1ccc(F)cc1` was tested, and the T/C (dose: 100.0 mg/kg/injection, schedule: Q01DX009 (ip), vehicle: Klucel (hydroxypropylcellulose) (HPC)) was 95 % of control, the T/C (dose: 100.0 mg/kg/injection, schedule: Q04DX003 (ip), vehicle: Klucel (hydroxypropylcellulose) (HPC)) was 91 % of control and the T/C (dose: 200.0 mg/kg/injection, schedule: Q01DX009 (ip), vehicle: Klucel (hydroxypropylcellulose) (HPC)) was 104 % of control. For the same compound, the T/C (dose: 200.0 mg/kg/injection, schedule: Q04DX003 (ip), vehicle: Klucel (hydroxypropylcellulose) (HPC)) was 104 % of control, the T/C (dose: 400.0 mg/kg/injection, schedule: Q01DX009 (ip), vehicle: Klucel (hydroxypropylcellulose) (HPC)) was 109 % of control and the T/C (dose: 400.0 mg/kg/injection, schedule: Q04DX003 (ip), vehicle: Klucel (hydroxypropylcellulose) (HPC)) was 91 % of control.

In the case of `S=c1sc(-c2ccc(Cl)cc2)c[se]1`, the T/C (dose: 0.78 mg/kg/injection, schedule: Q01DX009 (ip), vehicle: saline with Tween-80) was 97 % of control, the T/C (dose: 1.56 mg/kg/injection, schedule: Q01DX009 (ip), vehicle: saline with Tween-80) was 109 % of control and the T/C (dose: 3.13 mg/kg/injection, schedule: Q01DX009 (ip), vehicle: saline with Tween-80) was 93 % of control and 100 % of control. The T/C (dose: 12.5 mg/kg/injection, schedule: Q01DX009 (ip), vehicle: saline with Tween-80) was 93 % of control.

With `CS(=O)(=O)c1cnc2ccccc2n1` the T/C (dose: 25.0 mg/kg/injection, schedule: Q01DX009 (ip), vehicle: saline with Tween-80) was 97 % of control, the T/C [1] was 99 % of control and the T/C [2] was 90 % of control.

With `COC(=O)CC(N)C(=O)OC` (stereo not drawn) the T/C (dose: 25.0 mg/kg/injection, schedule: Q01DX009 (ip), vehicle: saline) was 102 % of control, the T/C (dose: 50.0 mg/kg/injection, schedule: Q01DX009 (ip), vehicle: saline) was 110 % of control and the T/C (dose: 100.0 mg/kg/injection, schedule: Q01DX009 (ip), vehicle: saline) was 103 % of control.

`Cn1cnc2c(SCc3ccccc3)ncnc21` was tested, and the T/C [2] was 109 % of control, the T/C [3] was 113 % of control and the T/C (dose: 400.0 mg/kg/injection, schedule: Q01DX009 (ip), vehicle: saline with Tween-80) was 90 % of control.

In the case of `O=C1CCC(=O)N1CO`, the T/C (dose: 25.0 mg/kg/injection, schedule: Q04DX003 (ip), vehicle: saline) was 109 % of control, the T/C (dose: 44.0 mg/kg/injection, schedule: Q04DX003 (ip), vehicle: saline) was 95 % of control and the T/C (dose: 50.0 mg/kg/injection, schedule: Q04DX003 (ip), vehicle: saline) was 104 % of control. The T/C (dose: 66.0 mg/kg/injection, schedule: Q04DX003 (ip), vehicle: saline) was 109 % of control, the T/C (dose: 100.0 mg/kg/injection, schedule: Q04DX003 (ip), vehicle: saline) was 118 % of control and the T/C (dose: 300.0 mg/kg/injection, schedule: Q04DX003 (ip), vehicle: saline) was 159 % of control.

`CC(C)(C)[Si](C)(C)OC(=O)Nc1ccc(N(CCCl)CCCl)cc1` was tested, and the T/C (dose: 0.05 mg/kg/injection, schedule: Q01DX009 (ip), vehicle: saline with Tween-80) was 104 % of control, the T/C (dose: 0.07 mg/kg/injection, schedule: Q01DX009 (ip), vehicle: saline with Tween-80) was 114 % of control and the T/C (dose: 0.11 mg/kg/injection, schedule: Q01DX009 (ip), vehicle: saline with Tween-80) was 117 % of control. The T/C (dose: 0.16 mg/kg/injection, schedule: Q01DX009 (ip), vehicle: saline with Tween-80) was 108 % of control and the T/C (dose: 0.32 mg/kg/injection, schedule: Q01DX009 (ip), vehicle: saline with Tween-80) was 107 % of control.

`COc1cc2oc3ccccc3c(=O)c2cc1CSc1ccccc1N` was tested, and the T/C [1] was 123 % of control, the T/C [2] was 88 % of control and the T/C [3] was 90 % of control.

For `CSCCCNC(=O)c1csc(-c2csc(CCNC(=O)c3ccccc3)n2)n1`, the T/C (dose: 8.0 mg/kg/injection, schedule: Q01DX009 (ip), vehicle: saline) was 100 % of control, the T/C (dose: 16.0 mg/kg/injection, schedule: Q01DX009 (ip), vehicle: saline) was 100 % of control and the T/C (dose: 32.0 mg/kg/injection, schedule: Q01DX009 (ip), vehicle: saline) was 110 % of control. For the same compound, the T/C (dose: 64.0 mg/kg/injection, schedule: Q01DX009 (ip), vehicle: saline) was 120 % of control.

For `O=S(=O)(Nc1ccccn1)c1ccc(N(CCCl)CCCl)cc1`, the T/C [1] was 100 % of control, the T/C [2] was 95 % of control and the T/C [3] was 90 % of control.

In the case of `O=[N+]([O-])CC1CCCCC1O` (stereo not drawn), the T/C (dose: 6.25 mg/kg/injection, schedule: Q04DX003 (ip), vehicle: saline with Tween-80) was 100 % of control, the T/C (dose: 12.5 mg/kg/injection, schedule: Q04DX003 (ip), vehicle: saline with Tween-80) was 100 % of control and the T/C (dose: 25.0 mg/kg/injection, schedule: Q04DX003 (ip), vehicle: saline with Tween-80) was 90 % of control.

With `CCNC(=S)N/N=C\C=N/NC(=S)NCC` the T/C (dose: 75.0 mg/kg/injection, schedule: Q01DX009 (ip), vehicle: saline with Tween-80) was 90 % of control and the T/C (dose: 300.0 mg/kg/injection, schedule: Q01DX009 (ip), vehicle: saline with Tween-80) was 91 % of control.

From PubChem BioAssay AID328 (DTP/NCI, 2004)
